Numbers after ± are expanded uncertainties.
Experiment: xn = mol fraction of the nth substance listed
Conditions: Liquid, Other PVT measurement

CCCCn1cc[n+](C)c1.F[B-](F)(F)F [1-butyl-3-methylimidazolium tetrafluoroborate] + c1ccccc1
mass density [kg/m3]
Conditions | x1 = 0.5 | x1 = 0.5999 | x1 = 0.7001 | x1 = 0.8 | x1 = 0.8999 | x1 = 1
313.15 K, 200 kPa | 1111 ± 11 | 1129 ± 11 | 1145 ± 12 | 1158 ± 12 | 1172 ± 12 | 1185 ± 12
313.15 K, 600 kPa | 1111 ± 11 | 1130 ± 11 | 1145 ± 12 | 1158 ± 12 | 1172 ± 12 | 1186 ± 12
313.15 K, 1000 kPa | 1111 ± 11 | 1130 ± 11 | 1146 ± 12 | 1158 ± 12 | 1173 ± 12 | 1186 ± 12
313.15 K, 1400 kPa | 1111 ± 11 | 1131 ± 11 | 1146 ± 12 | 1159 ± 12 | 1173 ± 12 | 1186 ± 12
313.15 K, 1800 kPa | 1111 ± 11 | 1131 ± 11 | 1147 ± 12 | 1159 ± 12 | 1173 ± 12 | 1187 ± 12
313.15 K, 2000 kPa | 1111 ± 11 | 1132 ± 11 | 1147 ± 12 | 1159 ± 12 | 1173 ± 12 | 1187 ± 12
353.15 K, 200 kPa | 1082 ± 11 | 1102 ± 11 | 1118 ± 11 | 1131 ± 11 | 1145 ± 12 | 1159 ± 12
353.15 K, 600 kPa | 1082 ± 11 | 1103 ± 11 | 1118 ± 11 | 1131 ± 11 | 1145 ± 12 | 1160 ± 12
353.15 K, 1000 kPa | 1083 ± 11 | 1103 ± 11 | 1118 ± 11 | 1131 ± 11 | 1145 ± 12 | 1160 ± 12
353.15 K, 1400 kPa | 1083 ± 11 | 1103 ± 11 | 1118 ± 11 | 1132 ± 11 | 1146 ± 12 | 1160 ± 12
353.15 K, 1800 kPa | 1084 ± 11 | 1104 ± 11 | 1119 ± 11 | 1132 ± 11 | 1146 ± 12 | 1161 ± 12
353.15 K, 2000 kPa | 1084 ± 11 | 1104 ± 11 | 1119 ± 11 | 1132 ± 11 | 1146 ± 12 | 1161 ± 12
393.15 K, 600 kPa | 1055 ± 11 | 1076 ± 11 | 1092 ± 11 | 1106 ± 11 | 1120 ± 11 | 1135 ± 11
393.15 K, 1000 kPa | 1055 ± 11 | 1076 ± 11 | 1092 ± 11 | 1106 ± 11 | 1120 ± 11 | 1135 ± 11
393.15 K, 1400 kPa | 1055 ± 11 | 1077 ± 11 | 1092 ± 11 | 1106 ± 11 | 1120 ± 11 | 1135 ± 11
393.15 K, 1800 kPa | 1056 ± 11 | 1077 ± 11 | 1092 ± 11 | 1106 ± 11 | 1121 ± 11 | 1136 ± 11
393.15 K, 2000 kPa | 1056 ± 11 | 1078 ± 11 | 1093 ± 11 | 1106 ± 11 | 1121 ± 11 | 1136 ± 11
433.15 K, 1400 kPa | 1028 ± 10 | 1050 ± 11 | 1066 ± 11 | 1080 ± 11 | 1096 ± 11 | 1112 ± 11
433.15 K, 1800 kPa | 1029 ± 10 | 1050 ± 11 | 1067 ± 11 | 1081 ± 11 | 1096 ± 11 | 1113 ± 11
433.15 K, 2000 kPa | 1029 ± 10 | 1051 ± 11 | 1067 ± 11 | 1081 ± 11 | 1096 ± 11 | 1113 ± 11
